The record followed here is patent US8530489B2 (Vertex Pharmaceuticals Incorporated, priority 2006, dated 2013).

PLK1, sequence (P53350 whole entry): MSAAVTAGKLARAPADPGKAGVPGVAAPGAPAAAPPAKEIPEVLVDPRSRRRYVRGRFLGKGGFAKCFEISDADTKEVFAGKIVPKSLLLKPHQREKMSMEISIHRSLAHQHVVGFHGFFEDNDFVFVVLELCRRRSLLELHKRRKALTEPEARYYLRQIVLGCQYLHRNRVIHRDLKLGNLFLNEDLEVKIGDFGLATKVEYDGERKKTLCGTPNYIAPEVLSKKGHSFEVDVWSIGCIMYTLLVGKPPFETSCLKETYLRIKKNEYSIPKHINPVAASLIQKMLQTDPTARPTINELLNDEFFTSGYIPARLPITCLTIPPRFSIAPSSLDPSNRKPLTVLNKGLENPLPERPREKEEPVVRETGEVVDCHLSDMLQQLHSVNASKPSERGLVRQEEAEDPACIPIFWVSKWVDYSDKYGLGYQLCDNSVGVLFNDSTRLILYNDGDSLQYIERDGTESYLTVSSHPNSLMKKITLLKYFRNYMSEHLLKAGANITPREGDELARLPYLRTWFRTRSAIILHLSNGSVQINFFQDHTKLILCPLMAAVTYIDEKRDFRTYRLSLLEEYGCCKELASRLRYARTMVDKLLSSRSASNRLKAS

This test deals with PLK1 (Homo sapiens, UniProt P53350). In words: PLK1 Inhibition Assay I (radioactive-phosphate incorporation). Format: biochemical. The conditions noted are these: Ki(app); PLK1 Inhibition Assay I or II (table does not say which). Put shortly:
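Ki(app) values came from non-linear regression of initial rates after background subtraction, with phosphopeptide measured by phosphocellulose filter binding and scintillation counting. PLK1 at 2 nM was preincubated with compound (typically from 10 μM, 2-fold dilutions) for 10 min, then run 240 min at 25° C with 350 μM [γ-33P]ATP and 450 μM peptide substrate in HEPES pH 7.5 buffer.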
Regarding `C[C@@H](Nc1ncc(C#N)c(-c2c[nH]c3ncc(C(F)(F)F)cc23)n1)c1ccc(NS(C)(=O)=O)c(F)c1` [Compound I-177, N-(4-((1R)-1-(5-cyano-4-(5-(trifluoromethyl)-1H-pyrrolo[2,3-b]pyridin-3-yl)pyrimidin-2-ylamino)ethyl)-2-fluorophenyl)methanesulfonamide], the Ki is less than 3 nM. For the compound `CCCC(C)Nc1ncc(C#N)c(-c2c[nH]c3ncc(C(F)(F)F)cc23)n1` (centres unmarked) [Compound I-35, 2-(pentan-2-ylamino)-4-(5-(trifluoromethyl)-1H-pyrrolo[2,3-b]pyridin-3-yl)pyrimidine-5-carbonitrile], the Ki lay in the range of 3 to 40 nM. `C[C@@H](Nc1ncc(C#N)c(-c2c[nH]c3ncc(C(F)(F)F)cc23)n1)C1CCN(C(=O)CC#N)CC1` [Compound I-233, 2-((R)-1-(1-(2-cyanoacetyl)piperidin-4-yl)ethylamino)-4-(5-(trifluoromethyl)-1H-pyrrolo[2,3-b]pyridin-3-yl)pyrimidine-5-carbonitrile]: the Ki is less than 3 nM. Turning to `N#Cc1cnc(NC[C@H]2CCCN2)nc1-c1c[nH]c2ncc(C(F)(F)F)cc12` [Compound I-88, 2-((R)-pyrrolidin-2-ylmethylamino)-4-(5-(trifluoromethyl)-1H-pyrrolo[2,3-b]pyridin-3-yl)pyrimidine-5-carbonitrile], the Ki was more than 40 nM. As to `CCN(CCN(C)C)c1ccc([C@@H](C)Nc2ncc(C#N)c(-c3c[nH]c4ncc(C(F)(F)F)cc34)n2)cn1` [Compound I-296, 2-((R)-1-(6-((2-(dimethylamino)ethyl)(ethyl)amino)pyridin-3-yl)ethylamino)-4-(5-(trifluoromethyl)-1H-pyrrolo[2,3-b]pyridin-3-yl)pyrimidine-5-carbonitrile], the Ki is less than 3 nM.

Take `C[C@@H](Nc1ncc(C#N)c(-c2c[nH]c3ncc(C(F)(F)F)cc23)n1)c1ccc(N[C@H]2CCN(C)C2)nc1` [Compound I-280, 2-(1-(6-((S)-1-methylpyrrolidin-3-ylamino)pyridin-3-yl)ethylamino)-4-(5-(trifluoromethyl)-1H-pyrrolo[2,3-b]pyridin-3-yl)pyrimidine-5-carbonitrile]: the Ki is 3 to 40 nM. Under `C[C@@H](Nc1ncc(C#N)c(-c2c[nH]c3ncc(C(F)(F)F)cc23)n1)c1ccc(N2CC[C@H](N3CCCC3)C2)nc1` [Compound I-288, 2-((R)-1-(6-((S)-1,3′-bipyrrolidin-1′-yl)pyridin-3-yl)ethylamino)-4-(5-(trifluoromethyl)-1H-pyrrolo[2,3-b]pyridin-3-yl)pyrimidine-5-carbonitrile] stands 3 to 40 nM. Under `N#Cc1cnc(NC2CCc3ccccc32)nc1-c1c[nH]c2ncc(C(F)(F)F)cc12` (centres unmarked) [Compound I-38, 2-(2,3-dihydro-1H-inden-1-ylamino)-4-(5-(trifluoromethyl)-1H-pyrrolo[2,3-b]pyridin-3-yl)pyrimidine-5-carbonitrile] stands more than 40 nM; under `C[C@@H](Nc1ncc(C#N)c(-c2c[nH]c3ncc(C(F)(F)F)cc23)n1)c1ccccc1` [Compound I-6, 2-((R)-1-phenylethylamino)-4-(5-(trifluoromethyl)-1H-pyrrolo[2,3-b]pyridin-3-yl)pyrimidine-5-carbonitrile], less than 3 nM. Under `C[C@@H](Nc1ncc(C#N)c(-c2c[nH]c3ncc(C(F)(F)F)cc23)n1)c1ccc(N(C)CCN(C)C)nc1` [Compound I-282, 2-((R)-1-(6-((2-(dimethylamino)ethyl)(methyl)amino)pyridin-3-yl)ethylamino)-4-(5-(trifluoromethyl)-1H-pyrrolo[2,3-b]pyridin-3-yl)pyrimidine-5-carbonitrile] stands less than 3 nM.

On to `N#Cc1cnc(NCCC2CCCN2)nc1-c1c[nH]c2ncc(C(F)(F)F)cc12` (centres unmarked) [Compound I-85, 2-(2-(pyrrolidin-2-yl)ethylamino)-4-(5-(trifluoromethyl)-1H-pyrrolo[2,3-b]pyridin-3-yl)pyrimidine-5-carbonitrile], for which the Ki is more than 40 nM. As to `CNc1ccc(C(C)Nc2ncc(C#N)c(-c3c[nH]c4ncc(C(F)(F)F)cc34)n2)cn1` (centres unmarked) [Compound I-151, 2-(1-(6-(methylamino)pyridin-3-yl)ethylamino)-4-(5-(trifluoromethyl)-1H-pyrrolo[2,3-b]pyridin-3-yl)pyrimidine-5-carbonitrile], the Ki is less than 3 nM. Next, `CC(Nc1ncc(C#N)c(-c2c[nH]c3ncc(C(F)(F)F)cc23)n1)c1ccc(C2(O)CCN(C)CC2)nc1` (centres unmarked) [Compound I-266, 2-(1-(6-(4-hydroxy-1-methylpiperidin-4-yl)pyridin-3-yl)ethylamino)-4-(5-(trifluoromethyl)-1H-pyrrolo[2,3-b]pyridin-3-yl)pyrimidine-5-carbonitrile]: less than 3 nM; `COC[C@@H](Nc1ncc(C#N)c(-c2c[nH]c3ncc(C(F)(F)F)cc23)n1)c1ccccc1` [Compound I-43, 2-((S)-2-methoxy-1-phenylethylamino)-4-(5-(trifluoromethyl)-1H-pyrrolo[2,3-b]pyridin-3-yl)pyrimidine-5-carbonitrile]: more than 40 nM; `C[C@@H](Nc1ncc(C#N)c(-c2c[nH]c3ncc(C(F)(F)F)cc23)n1)c1ccc(C(N)=O)cc1` [Compound I-176, 4-((1R)-1-(5-cyano-4-(5-(trifluoromethyl)-1H-pyrrolo[2,3-b]pyridin-3-yl)pyrimidin-2-ylamino)ethyl)benzamide]: less than 3 nM. For `CC(Nc1ncc(C#N)c(-c2c[nH]c3ncc(C(F)(F)F)cc23)n1)C1(F)CCN(CC#N)CC1` (centres unmarked) [Compound I-238, 2-(1-(1-(cyanomethyl)-4-fluoropiperidin-4-yl)ethylamino)-4-(5-(trifluoromethyl)-1H-pyrrolo[2,3-b]pyridin-3-yl)pyrimidine-5-carbonitrile], the Ki is less than 3 nM.

Take `CC(Nc1ncc(C#N)c(-c2c[nH]c3ncc(C(F)(F)F)cc23)n1)c1ccc(=O)[nH]c1` (centres unmarked) [Compound I-100, 2-(1-(6-oxo-1,6-dihydropyridin-3-yl)ethylamino)-4-(5-(trifluoromethyl)-1H-pyrrolo[2,3-b]pyridin-3-yl)pyrimidine-5-carbonitrile]: the Ki was less than 3 nM. Regarding `C[C@@H](Nc1ncc(C#N)c(-c2c[nH]c3ncc(C(F)(F)F)cc23)n1)C1CCN(CC(N)=O)CC1` [Compound I-218, 2-(4-((1R)-1-(5-cyano-4-(5-(trifluoromethyl)-1H-pyrrolo[2,3-b]pyridin-3-yl)pyrimidin-2-ylamino)ethyl)piperidin-1-yl)acetamide], the Ki was less than 3 nM. Next, `CCC(CO)Nc1ncc(C#N)c(-c2c[nH]c3ncc(C(F)(F)F)cc23)n1` (centres unmarked) [Compound I-39, 2-(1-hydroxybutan-2-ylamino)-4-(5-(trifluoromethyl)-1H-pyrrolo[2,3-b]pyridin-3-yl)pyrimidine-5-carbonitrile]: 3 to 40 nM.

On to `C[C@@H](Nc1ncc(C#N)c(-c2c[nH]c3ncc(C(F)(F)F)cc23)n1)c1ccc(NC(=O)C2CC2)cc1` [Compound I-137, N-(4-((1R)-1-(5-cyano-4-(5-(trifluoromethyl)-1H-pyrrolo[2,3-b]pyridin-3-yl)pyrimidin-2-ylamino)ethyl)phenyl)cyclopropanecarboxamide], for which the Ki was less than 3 nM. Under `CC(C)N1CCN(c2ccc([C@@H](C)Nc3ncc(C#N)c(-c4c[nH]c5ncc(C(F)(F)F)cc45)n3)cc2)CC1` [Compound I-140, 2-((R)-1-(4-(4-isopropylpiperazin-1-yl)phenyl)ethylamino)-4-(5-(trifluoromethyl)-1H-pyrrolo[2,3-b]pyridin-3-yl)pyrimidine-5-carbonitrile] stands less than 3 nM; under `N#CCNc1ncc(C#N)c(-c2c[nH]c3ncc(C(F)(F)F)cc23)n1` [Compound I-71, 2-(cyanomethylamino)-4-(5-(trifluoromethyl)-1H-pyrrolo[2,3-b]pyridin-3-yl)pyrimidine-5-carbonitrile], more than 40 nM. Next, `N#Cc1cnc(Sc2cccc(Br)c2)nc1-c1c[nH]c2ncc(C(F)(F)F)cc12` [II-4, 2-(3-bromophenylthio)-4-(5-(trifluoromethyl)-1H-pyrrolo[2,3-b]pyridin-3-yl)pyrimidine-5-carbonitrile]: more than 40 nM; `N#Cc1cnc(NCc2ccc3c(c2)CCO3)nc1-c1c[nH]c2ncc(C(F)(F)F)cc12` [Compound I-62, 2-((2,3-dihydrobenzofuran-5-yl)methylamino)-4-(5-(trifluoromethyl)-1H-pyrrolo[2,3-b]pyridin-3-yl)pyrimidine-5-carbonitrile]: 3 to 40 nM; `C[C@@H](Nc1ncc(C#N)c(-c2c[nH]c3ncc(C(F)(F)F)cc23)n1)c1cnc(N2CCN(C)CC2)nc1` [Compound I-299, 2-((R)-1-(2-(4-methylpiperazin-1-yl)pyrimidin-5-yl)ethylamino)-4-(5-(trifluoromethyl)-1H-pyrrolo[2,3-b]pyridin-3-yl)pyrimidine-5-carbonitrile]: less than 3 nM. On to `N#Cc1cnc(NCc2cccnc2)nc1-c1c[nH]c2ncc(C(F)(F)F)cc12` [Compound I-14, 2-(pyridin-3-ylmethylamino)-4-(5-(trifluoromethyl)-1H-pyrrolo[2,3-b]pyridin-3-yl)pyrimidine-5-carbonitrile], for which the Ki was 3 to 40 nM. Under `N#Cc1cnc(NCC2CCCCC2)nc1-c1c[nH]c2ncc(C(F)(F)F)cc12` [Compound I-29, 2-(cyclohexylmethylamino)-4-(5-(trifluoromethyl)-1H-pyrrolo[2,3-b]pyridin-3-yl)pyrimidine-5-carbonitrile] stands 3 to 40 nM; under `CN1CCC(Nc2ncc(C#N)c(-c3c[nH]c4ncc(C(F)(F)F)cc34)n2)CC1` [Compound I-63, 2-(1-methylpiperidin-4-ylamino)-4-(5-(trifluoromethyl)-1H-pyrrolo[2,3-b]pyridin-3-yl)pyrimidine-5-carbonitrile], 3 to 40 nM; under `CC(C)CNc1ncc(C#N)c(-c2c[nH]c3ncc(C(F)(F)F)cc23)n1` [Compound I-36, 2-(isobutylamino)-4-(5-(trifluoromethyl)-1H-pyrrolo[2,3-b]pyridin-3-yl)pyrimidine-5-carbonitrile], 3 to 40 nM.
